Laboratory results as given in patent publication US6737383B1, “Herbicidal oxadiazolidines” (priority 1999, dated 2004).

What was measured:
bedstraw = assay: Test B pre/postemergence bedstraw; type: in vivo, Galium aparine
How it was run: (§1)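 Response is a visual 0-to-10 score relative to untreated plants, where 0 means no effect and 10 means complete control, taken twelve to sixteen days after application. Treatments went onto soil at planting and onto foliage of 1- to 4-leaf plants, using a surfactant-containing non-phytotoxic solvent.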

blackgrass = assay: Test B pre/postemergence blackgrass; type: in vivo, Alopecurus myosuroides
How it was run: as §1

surinam grass = assay: Test B pre/postemergence surinam grass; type: in vivo, Brachiaria decumbens
How it was run: as §1

corn = assay: Test B pre/postemergence corn; type: in vivo, Zea mays
How it was run: as §1

crabgrass = assay: Test B pre/postemergence crabgrass; type: in vivo, Digitaria sanguinalis
How it was run: as §1

giant foxtail = assay: Test B pre/postemergence giant foxtail; type: in vivo, Setaria faberii
How it was run: as §1

morningglory = assay: Test B pre/postemergence morningglory; type: in vivo, Ipomoea hederacea
How it was run: as §1

pigweed = assay: Test B pre/postemergence pigweed; type: in vivo, Amaranthus retroflexus
How it was run: as §1

rape = assay: Test B pre/postemergence rape; type: in vivo, Brassica napus
How it was run: as §1

soybean = assay: Test B pre/postemergence soybean; type: in vivo, Glycine max
How it was run: as §1

velvetleaf = assay: Test B pre/postemergence velvetleaf; type: in vivo, Abutilon theophrasti
How it was run: as §1

wheat = assay: Test B pre/postemergence wheat; type: in vivo, Triticum aestivum
How it was run: as §1

wild oat = assay: Test B pre/postemergence wild oat; type: in vivo, Avena fatua
How it was run: as §1

purple nutsedge = assay: Test B pre/postemergence purple nutsedge; type: in vivo, Cyperus rotundus
How it was run: as §1

rice = assay: Test B flood test rice; type: in vivo, Oryza sativa
How it was run: (§2)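 Each value is a visual injury score relative to controls, with 10 meaning complete control and 0 no effect. Evaluation took place twelve to sixteen days after the 2-leaf-stage plants were treated and kept in the greenhouse.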

duck salad = assay: Test B flood test duck salad; type: in vivo, Heteranthera limosa
How it was run: as §2

[1] = Postemergence, Rate 125 g/ha, scale of 0 to 10 where 0 is no effect and 10 is complete control
[2] = Preemergence, Rate 62 g/ha, scale 0 to 10 (0 no effect, 10 complete control)
[3] = Preemergence, Rate 125 g/ha, 0 is no effect, 10 is complete control
[4] = Preemergence, Rate 250 g/ha, scale 0 to 10, 0 is no effect, 10 is complete control
[5] = Preemergence, Rate 500 g/ha, scale 0 to 10 (0 no effect, 10 complete control)
[6] = Rate 62 g/ha, Postemergence, scale of 0 to 10 where 0 is no effect and 10 is complete control
[7] = Rate 250 g/ha, Postemergence, scale 0 to 10, 0 is no effect, 10 is complete control
[8] = Rate 500 g/ha, Postemergence, scale 0 to 10
[9] = Postemergence, Rate 1000 g/ha, scale 0 to 10 (0 no effect, 10 complete control)
[10] = Rate 250 g/ha, Postemergence (flood test), scale 0 to 10, 0 is no effect, 10 is complete control
[11] = Rate 500 g/ha, listed under Postemergence (flood test species), scale 0 to 10
[12] = Rate 2000 g/ha, Postemergence, scale 0 to 10

SMILES: Cc1nsc(C)c1-n1c(=O)on(C(=O)N(c2ccc(F)cc2)C(C)C)c1=O [Compound 157]
- Bedstraw plant response rating (bedstraw; [1]): 0
- Bedstraw plant response rating (bedstraw; [2]): 0
- Bedstraw plant response rating (0 to 10 scale) (bedstraw; [3]): 0
- Bedstraw plant response rating (bedstraw; [4]): 0
- Bedstraw plant response rating (bedstraw; [5]): 0
- Bedstraw plant response rating (bedstraw; [6]): 0
- Plant response rating, Bedstraw (bedstraw; [7]): 0
- Blackgrass plant response rating (blackgrass; [1]): 0
- Blackgrass plant response rating (blackgrass; [2]): 0
- Blackgrass plant response rating (0 to 10 scale) (blackgrass; [3]): 0
- Blackgrass plant response rating (blackgrass; [4]): 5
- Blackgrass plant response rating (blackgrass; [5]): 5
- Blackgrass plant response rating (blackgrass; [6]): 0
- Plant response rating, Blackgrass (blackgrass; [7]): 0
- Blackgrass plant response rating (blackgrass; [8]): 2
- B. signalgrass plant response rating (surinam grass; [1]): 0
- B. signalgrass plant response rating (surinam grass; [2]): 0
- B. signalgrass plant response rating (0 to 10 scale) (surinam grass; [3]): 0
- B. signalgrass plant response rating (surinam grass; [4]): 0
- B. signalgrass plant response rating (surinam grass; [5]): 0
- B. signalgrass plant response rating (surinam grass; [6]): 0
- Plant response rating, B. signalgrass (surinam grass; [7]): 0
- B. signalgrass plant response rating (surinam grass; Rate 500 g/ha, Postemergence, scale 0 to 10, 0 no effect, 10 complete control): 0
- Corn plant response rating (corn; [1]): 0
- Corn plant response rating (corn; [2]): 0
- Corn plant response rating (0 to 10 scale) (corn; [3]): 0
- Corn plant response rating (corn; [4]): 0
- Corn plant response rating (corn; [5]): 0
- Corn plant response rating (corn; [6]): 0
- Plant response rating, Corn (corn; [7]): 0
- Corn plant response rating (corn; [8]): 0
- Crabgrass plant response rating (crabgrass; [1]): 0
- Crabgrass plant response rating (crabgrass; [2]): 0
- Crabgrass plant response rating (0 to 10 scale) (crabgrass; [3]): 2
- Crabgrass plant response rating (crabgrass; [4]): 4
- Crabgrass plant response rating (crabgrass; [5]): 6
- Crabgrass plant response rating (crabgrass; [6]): 0
- Plant response rating, Crabgrass (crabgrass; [7]): 2
- Crabgrass plant response rating (crabgrass; [8]): 7
- Giant foxtail plant response rating (giant foxtail; [1]): 1
- Giant foxtail plant response rating (giant foxtail; [2]): 3
- Giant foxtail plant response rating (0 to 10 scale) (giant foxtail; [3]): 6
- Giant foxtail plant response rating (giant foxtail; [4]): 8
- Giant foxtail plant response rating (giant foxtail; [5]): 10
- Giant foxtail plant response rating (giant foxtail; [6]): 0
- Plant response rating, Giant foxtail (giant foxtail; [7]): 4
- Giant foxtail plant response rating (giant foxtail; [8]): 4
- Morningglory plant response rating (morningglory; [1]): 1
- Morningglory plant response rating (morningglory; [2]): 0
- Morningglory plant response rating (0 to 10 scale) (morningglory; [3]): 0
- Morningglory plant response rating (morningglory; [4]): 0
- Morningglory plant response rating (morningglory; [5]): 3
- Morningglory plant response rating (morningglory; [6]): 0
- Plant response rating, Morningglory (morningglory; [7]): 1
- Morningglory plant response rating (morningglory; [8]): 1
- Redroot pigweed plant response rating (pigweed; [1]): 0
- Redroot pigweed plant response rating (pigweed; [2]): 0
- Redroot pigweed plant response rating (0 to 10 scale) (pigweed; [3]): 0
- Redroot pigweed plant response rating (pigweed; [4]): 0
- Redroot pigweed plant response rating (pigweed; [5]): 0
- Redroot pigweed plant response rating (pigweed; [6]): 0
- Plant response rating, Redroot pigweed (pigweed; [7]): 0
- Redroot pigweed plant response rating (pigweed; [8]): 0
- Rape plant response rating (rape; [1]): 0
- Rape plant response rating (rape; [2]): 0
- Rape plant response rating (0 to 10 scale) (rape; [3]): 0
- Rape plant response rating (rape; [4]): 0
- Rape plant response rating (rape; [5]): 0
- Rape plant response rating (rape; [6]): 0
- Plant response rating, Rape (rape; [7]): 0
- Rape plant response rating (rape; [8]): 0
- Soybean plant response rating (soybean; [1]): 1
- Soybean plant response rating (soybean; [2]): 0
- Soybean plant response rating (0 to 10 scale) (soybean; [3]): 0
- Soybean plant response rating (soybean; [4]): 0
- Soybean plant response rating (soybean; [5]): 0
- Soybean plant response rating (soybean; [6]): 0
- Plant response rating, Soybean (soybean; [7]): 1
- Soybean plant response rating (soybean; [8]): 2
- Velvetleaf plant response rating (velvetleaf; [2]): 0
- Velvetleaf plant response rating (0 to 10 scale) (velvetleaf; [3]): 0
- Velvetleaf plant response rating (velvetleaf; [4]): 0
- Velvetleaf plant response rating (velvetleaf; [5]): 0
- Plant response rating, Velvetleaf (velvetleaf; [7]): 0
- Velvetleaf plant response rating (velvetleaf; [8]): 0
- Wheat plant response rating (wheat; [2]): 0
- Wheat plant response rating (0 to 10 scale) (wheat; [3]): 0
- Wheat plant response rating (wheat; [4]): 0
- Wheat plant response rating (wheat; [5]): 0
- Plant response rating, Wheat (wheat; [7]): 0
- Wheat plant response rating (wheat; [8]): 0
- Wild oats plant response rating (wild oat; [2]): 0
- Wild oats plant response rating (0 to 10 scale) (wild oat; [3]): 0
- Wild oats plant response rating (wild oat; [4]): 0
- Wild oats plant response rating (wild oat; [5]): 0
- Plant response rating, Wild oats (wild oat; [7]): 0
- Wild oats plant response rating (wild oat; [8]): 0
- Nutsedge plant response rating (purple nutsedge; [1]): 0
- Nutsedge plant response rating (purple nutsedge; [2]): 0
- Nutsedge plant response rating (0 to 10 scale) (purple nutsedge; [3]): 0
- Nutsedge plant response rating (purple nutsedge; [4]): 0
- Nutsedge plant response rating (purple nutsedge; [5]): 0
- Nutsedge plant response rating (purple nutsedge; [6]): 0
- Plant response rating, Nutsedge (purple nutsedge; [7]): 0
- Nutsedge plant response rating (purple nutsedge; [8]): 0
- Rice plant response rating (rice; [9]): 0
- Plant response rating, Rice (rice; [10]): 0
- Rice plant response rating (rice; [11]): 0
- Rice plant response rating (rice; [12]): 0
- Ducksalad plant response rating (duck salad; [9]): 0
- Plant response rating, Ducksalad (duck salad; [10]): 0
- Ducksalad plant response rating (duck salad; [11]): 0
- Ducksalad plant response rating (duck salad; [12]): 0
